pKi: −log10 of the molar value.
Assays:
[1] = biological target: T1, MC4 receptor (MC4R) (Homo sapiens, UniProt P32245); test: Nle4, D-Phe7-α-MSH inhibition at the MC4 receptor (SPA competition binding vs [125I] Nle4, D-Phe7-α-MSH); conditions: vs 0.06 nM [125I] Nle4, D-Phe7-α-MSH, CHO-CRE MC4R cell membranes
T1 construct: expressed in transfected cells; host or cells: CHO-CRE MC4R cells (membranes)
Text: Nle4, D-Phe7-α-MSH Inhibition at the MC4 Receptor
(§1) Nle4, Nle4, D-Phe7-α-MSH is a stable analogue of melanocyte-stimulating hormone (MSH), which is an agonist at the MC4 receptor (MC4R). Compounds can be evaluated for their ability to inhibit Nle4, Nle4, D-Phe7-α-MSH binding to membranes from cells expressing the MC4R using a competition binding assay versus [^125I] Nle4, D-Phe7-α-MSH.
Cells expressing the MC4R were subject to homogenisation and the membrane fragment isolated by differential centrifugation. CHO-CRE MC4R cell membranes were coupled to PVT-PEI-WGA SPA Beads type A for 2 hours, spun at 1000 RPM for 5 mins and suspended to a concentration of 300 ug bead/ml (0.15 ug membrane, 15 ug bead per well). Bead/membrane mix was incubated with 0.06 nM [^125I] Nle4, D-Phe7-α-MSH and 11 half-log concentrations of competitor ligand, in duplicate, in a total volume of 50 μl buffer per well (25 mM HEPES, 1 mM MgCl2, 2.5 mM CaCl2, 1% Pluronic F68, 1 complete EDTA protease inhibitor tablet/50 ml pH7). Non-specific binding was determined by the inclusion of 100 nM SHU9119. The reaction was initiated by the addition of bead/membranes and plates were incubated at room temperature for 12 hours (the first hour on a plate shaker), after which the amount of radioactivity present was determined using a Wallac plate counter. Ki values were determined by data analysis using appropriate software.

[2] = biological target: T2, MC3 receptor (MC3R) (Homo sapiens, UniProt P41968); test: Nle4, D-Phe7-α-MSH inhibition at the MC3 receptor (SPA competition binding); conditions: vs 0.06 nM Nle4, D-Phe7-α-MSH, CHO-CRE MC3R cell membranes
T2 construct: expressed in transfected cells; host or cells: CHO-CRE MC3R cells (membranes)
Text: Nle4, D-Phe7-α-MSH Inhibition at the MC3 Receptor
as §1, with “Nle4,” for “Nle4, Nle4,”, “MC3” for “MC4”, “(MC3R).” for “(MC4R).”, “MC3R” for “MC4R”
Cells expressing the MC3R were subject to homogenisation and the membrane fragment isolated by differential centrifugation. CHO-CRE MC3R cell membranes were coupled to PVT-PEI-WGA SPA Beads type A for 2 hours, spun at 1000 RPM for 5 mins and suspended to a final assay concentration of 800 ug bead/ml (1.2 ug membrane, 40 ug bead per well). Bead/membrane mix was incubated with 0.06 nM Nle4, D-Phe7-α-MSH and 11 half-log concentrations of competitor ligand, in duplicate, in a total volume of 50 μl buffer per well (25 mM HEPES, 1 mM MgCl2, 2.5 mM CaCl2, 1% Pluronic F68, 1 complete EDTA protease inhibitor tablet/50 ml pH7).
Non-specific binding was determined by the inclusion of 100 nM SHU9119. The reaction was initiated by the addition of bead/membranes and plates were incubated at room temperature for 12 hours (the first hour on a plate shaker), after which the amount of radioactivity present was determined using a Wallac plate counter. Ki values were determined by data analysis using appropriate software.

[3] = biological target: T1, MC4 receptor (MC4R); test: AGRP inhibition: competition binding vs [125I]AGRP(87-132) at CHO-CRE MC4R cell membranes; conditions: vs 0.3 nM [125I]AGRP(87-132)
Text: Agouti related protein (AGRP) is a high affinity endogenous antagonist/inverse agonist for the MC4 receptor (Lu et al., 1994, Nature 371: 799-802; Oilman et al., 1997, Science 278: 135-138). […] It has been ascertained that this C-terminal fragment of AGRP contains the MC4R binding determinants (Yang et al., 1999, Mol Endocrinol 13: 148-155), therefore, compounds can be evaluated for their ability to inhibit AGRP binding to membranes from cells expressing the MC4R using a competition binding assay versus [^125I]AGRP(87-132). To this end cells expressing the MC4R were subject to homogenisation and the membrane fragment isolated by differential centrifugation. CHO-CRE MC4R cell membranes (12 μg protein) were incubated with 0.3 nM [^125I]AGRP(87-132) and 11 half-log concentrations of competitor ligand, in duplicate, in a total volume of 100 μl buffer (25 mM HEPES, 1 mM MgCl2, 2.5 mM CaCl2, 0.5% BSA pH 7.0). Non-specific binding was determined by the inclusion of 1 μM SHU9119. The reaction was initiated by the addition of membranes and plates were incubated at room temperature for 2 hours. The reaction was terminated by rapid filtration onto GF/C filters (presoaked in 1% PEI) using a vacuum harvester followed by five 200 μl washes of ice cold wash buffer (Binding buffer containing 500 mM NaCl). The filters were soaked in 50 μl scintillation fluid and the amount of radioactivity present was determined by liquid scintillation counting. Ki values were determined by data analysis using appropriate software.

T1 sequence (P32245 whole entry): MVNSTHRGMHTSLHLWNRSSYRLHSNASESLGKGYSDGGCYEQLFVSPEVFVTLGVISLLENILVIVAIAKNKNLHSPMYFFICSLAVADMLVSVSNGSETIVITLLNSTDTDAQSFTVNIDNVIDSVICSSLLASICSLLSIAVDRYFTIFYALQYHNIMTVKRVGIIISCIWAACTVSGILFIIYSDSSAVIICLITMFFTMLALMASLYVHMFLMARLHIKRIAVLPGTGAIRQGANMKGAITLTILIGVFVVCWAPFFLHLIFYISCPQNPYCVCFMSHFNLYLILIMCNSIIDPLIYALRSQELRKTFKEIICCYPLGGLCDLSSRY
T2 sequence (P41968 whole entry): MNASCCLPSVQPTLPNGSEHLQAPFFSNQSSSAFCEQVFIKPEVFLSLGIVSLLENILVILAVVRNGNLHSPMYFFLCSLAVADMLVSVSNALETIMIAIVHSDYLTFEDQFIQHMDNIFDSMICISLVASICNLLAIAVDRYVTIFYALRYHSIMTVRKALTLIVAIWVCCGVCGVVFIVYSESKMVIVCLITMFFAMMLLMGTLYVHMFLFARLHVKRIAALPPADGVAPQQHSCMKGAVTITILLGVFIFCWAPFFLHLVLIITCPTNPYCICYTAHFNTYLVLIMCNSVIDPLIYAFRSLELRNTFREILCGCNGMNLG

SMILES	pKi [1]	pKi [2]	pKi [3]
C[C@@H]1CN(C(=O)[C@@H]2CN(c3ccc(C#N)nn3)C[C@H]2c2ccc(Cl)cn2)C[C@H](C)[C@@]1(O)c1ccc(F)cc1 [Example 2, 6-[(3S,4S)-3-(5-Chloropyridin-2-yl)-4-{[(3R,4R,5S)-4-(4-fluorophenyl)-4-hydroxy-3,5-dimethylpiperidin-1-yl]carbonyl}pyrrolidin-1-yl]pyridazine-3-carbonitrile]	7.57	6.91	7.23
CC1CN(C(=O)C2CN(c3cncc(F)c3)CC2c2ccc(Cl)cn2)CC(C)C1(O)c1ccc(F)cc1 (stereo not drawn) [Example 25]	7.96	> 9.98	6.56
C[C@@H]1CN(C(=O)[C@@H]2CN(c3ccc(=O)n(C)n3)C[C@H]2c2ccc(Cl)cn2)C[C@H](C)[C@@]1(O)C1CCCCC1 [Example 17]	6.95	6.48	7.70
C[C@@H]1CN(C(=O)[C@@H]2CN(c3ccc(=O)n(C)n3)C[C@H]2c2ccc(Cl)cn2)C[C@H](C)[C@@]1(O)c1ccc(Cl)cn1 [Example 10]	6.56	6.01	6.65
CC1CN(C(=O)C2CN(c3ccc(=O)n(C)n3)CC2c2ccc(Cl)cn2)CC(C)C1(O)c1ccc(F)c(F)c1 (stereo not drawn) [Example 19]	7.07	6.25	7.10
COc1ccc(C2(O)C(C)CN(C(=O)C3CN(c4ccc(=O)n(C)n4)CC3c3ccc(Cl)cn3)CC2C)cc1 (stereo not drawn) [Example 20]	6.60	5.99	6.60
